Source: patent US20240008480A1, “MICROCAPSULE WITH ACETAMIDES AND DIFLUFENICAN” (MONSANTO TECHNOLOGY LLC, priority 2020, published 2024)

Tests used:
[1] = tested on: GR (glyphosate resistant) palmer amaranth (AMAPA); assay: Greenhouse pre-emergent efficacy, Example 3B; format: in vivo, Amaranthus palmeri
Text: (§1) ACC, DFF and MRB were used as the commercial products Warrant®, Brodal® and TriCor® DF as described in Example 3A above. Further, also a DFF+MRB pre-mix (200 g/L DFF+400 g/L MRB, suspension concentrate) was used. For GR (glyphosate resistant) palmer amaranth (AMAPA), at 1X rate, all 2- and 3-way treatments provided >95% control. Except for the DFF+MRB pre-mix, these treatments also provided >95% control of GR AMAPA at ½X rate as well. No single active ingredient provided acceptable control of GR AMAPA in this trial.

[2] = tested on: proso millet (PANMI); assay: Greenhouse pre-emergent efficacy, Example 3B; format: in vivo, Panicum miliaceum; settings: both rates tested
Text: as §1

[3] = tested on: glyphosate resistant Canola (Roundup Ready® Canola); assay: Greenhouse post-emergent efficacy in glyphosate resistant Canola, Example 3C; format: in vivo; settings: text statement on Table 3C
Description: ACC and DFF were used as the commercial products Warrant® and Brodal® as described in Example 3A above. The seeds of glyphosate resistant Canola (Roundup Ready® Canola) were planted in 3.5-inches (8.89 cm) square plastic pots filled with a potting media of 75% silt loam and 25% Redi-earth (Sun Gro, Bellevue, WA). The temperature conditions were 22° C. day and 17° C. night with 14 hours of supplemental light (approximately 600 microeinsteins). The pots are placed in a controlled-environment greenhouse equipped with sub-irrigation. The treatments applications were applied to the plants with a track sprayer generally using a TTI110015 nozzle spray nozzle. The spray nozzle was 16 inches (40.64 cm) above the top of the plants and a spray volume rate of about 140 L/ha was applied. The plants were sprayed when canola was at the V3-V4 growth stage. Visual ratings (% control) were collected at 14 DAT.

Row | SMILES | control of GR AMAPA, in words [1] | control of proso millet (PANMI), in words [2] | herbicidal activity on glyphosate resistant Canola, in words [3]
1 | O=C(Nc1ccc(F)cc1F)c1cccnc1Oc1cccc(C(F)(F)F)c1 [DFF, N-(2,4-difluorophenyl)-2-[3-(trifluoromethyl)phenoxy]-3-pyridinecarboxamide] | weak control | weak control | –
2 | CCOCN(C(=O)CCl)c1c(C)cccc1CC [ACC, 2-chloro-N-(ethoxymethyl)-N-(2-ethyl-6-methylphenyl)acetamide] | weak control | weak control | very low herbicidal activity
